Biological target: T1, hSGLT5 Arg401His (Homo sapiens, UniProt A0PJK1, R401H)
T1 construct: pUB83-hSGLT5-iso2 as well as the various SGLT5 mutants obtained were used to transduce HEK293T cells; expressed in transfected cells; host or cells: HEK293T, lentiviral transduction (pUB83)
T1 sequence (A0PJK1 1-596 R401H): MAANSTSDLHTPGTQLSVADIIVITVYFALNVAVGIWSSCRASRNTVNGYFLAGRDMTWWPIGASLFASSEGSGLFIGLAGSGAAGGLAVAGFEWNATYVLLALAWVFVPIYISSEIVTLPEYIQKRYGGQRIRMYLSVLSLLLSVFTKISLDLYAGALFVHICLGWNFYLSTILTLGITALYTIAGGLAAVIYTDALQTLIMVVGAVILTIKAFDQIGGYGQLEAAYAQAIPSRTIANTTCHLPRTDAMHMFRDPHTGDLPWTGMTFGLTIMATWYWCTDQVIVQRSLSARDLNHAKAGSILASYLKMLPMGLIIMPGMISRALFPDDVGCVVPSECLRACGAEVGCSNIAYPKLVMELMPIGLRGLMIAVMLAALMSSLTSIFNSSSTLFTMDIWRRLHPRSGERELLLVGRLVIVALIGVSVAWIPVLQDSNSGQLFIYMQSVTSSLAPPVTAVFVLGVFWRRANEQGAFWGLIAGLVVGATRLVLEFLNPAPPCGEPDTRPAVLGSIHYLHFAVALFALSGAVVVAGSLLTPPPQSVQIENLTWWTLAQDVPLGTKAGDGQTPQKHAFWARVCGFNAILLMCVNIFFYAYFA
Assay: Inhibition of 10 µM 1,5-AG transport by SGLT5 variant Arg401His
Assay type: cell-based
Details: Fig. 5D
Experimental: The transport experiments to study the specificity of SGLT4 or SGLT5, were performed in the presence of 10 µM U-[^14C + ^12C]-mannose (for SGLT4) or 2-[^3H + ^1H]-1,5-AG (for SGLT5) and increasing concentrations of various sugars tested. The transport experiments to study the inhibition of empagliflozin, dapagliflozin or remogliflozin, on the transport of 1,5-AG by SGLT5 or its variants were performed in the presence of 10 µM 2-[^3H + ^1H]-1,5-AG and increasing concentrations of the various gliflozins tested.
SGLT5 mutants were created using the quick-change site directed mutagenesis method that enables effective mutagenesis without subcloning of the amplified PCR products. Complementary primer pairs carrying the desired replacements (Supplementary Table 3) were designed using an online tool (https://www.agilent.com/store/primerDesignProgram.jsp). The PCR protocol was carried out following the manufacturer instructions regarding the KOD HOT Start polymerase kit (TOYOBO™, Novagen). The amplified DNA was cleaned-up from the reactions constituents using the GeneJET PCR purification Kit (Thermo Scientific™) and the size of the DNA fragment were verified by DNA agarose-gel electrophoresis. […]

effect of mutation on concentration of empagliflozin needed to inhibit SGLT5: did not affect significantly
SMILES: OC[C@H]1O[C@@H](c2ccc(Cl)c(Cc3ccc(O[C@H]4CCOC4)cc3)c2)[C@H](O)[C@@H](O)[C@@H]1O [empagliflozin]

Source: article PMC10439028, “SGLT5 is the renal transporter for 1,5-anhydroglucitol, a major player in two rare forms of neutropenia” (Cellular and Molecular Life Sciences: CMLS, 2023)
